Legend:
[1] = tested on: Pseudomonas aeruginosa DSM 939; test: Dry-film bactericide test, modified Swiss Standard SNV195120, water-based interior eggshell paint; type: cell-based; parameters: key: 0H: No bacterial growth under the specimen, inhibition zone on the nutrient.; 0: No growth of bacteria under the specimen.; Growth of bacteria under the specimen
Procedure: The activity of the immobilized BIT/ZnO complex from Example 8 as a dry-film bactericide against Pseudomonas aeruginosa DSM 939 was determined in a commercially available water-based interior eggshell paint (40% acrylic binder with an adhesion promoter) according to the modified Swiss Standard SNV195120. The composition of the paint, which is typically applied in wet rooms, is set out below.
The microbiological test was performed according to the procedure described in Example 14.

[2] = tested on: Pseudomonas aeruginosa DSM 939; test: Dry-film bactericide test, modified Swiss Standard SNV195120, water-based interior flat paint; type: cell-based
Procedure: (§1) The activity of the immobilized BIT/ZnO complex from Example 8 as a dry-film bactericide against Pseudomonas aeruginosa DSM 939 was determined in an ICI UK, Diamond Matt paint, a commercially available water-based interior flat paint (40% acrylic binder) according to the modified Swiss Standard SNV195120, which is described below
The immobilized BIT/ZnO complex from example 8 was incorporated into the water-based interior flat paint at the levels shown in the Table below. The paints were allowed to equilibrate for one week at room temperature.
A quantity of 50 mg of the BIT/ZnO complex was mixed with 100 g of the paint (resulting in 0.05% of the specimen 1 in the table below, the other specimens were prepared accordingly). Round filter papers (5.5 cm diameter) were coated with the test material to a thickness of 150 g/m2 wet and the resulting specimens dried at room temperature.
One half of the test specimen was leached by tap water (9 liters per m^2) in a beaker. The specimens were dried at room temperature and sterilized by gamma radiation from a cobalt 60 source (25 kGy). In the microbiological test, Pseudomonas aeruginosa DSM 939 was used as the bacteria source.
Liquid cultures of each bacterial strain were incubated over night at appropriate temperatures and then diluted 1:100,000 to result in a count of 10^4 cfu per ml. […]

[3] = tested on: Pseudomonas aeruginosa DSM 939; test: JIS Z2801 test after 24 h water leaching (severe environmental conditions), paint of example 15; type: cell-based; conditions: specimens leached in water 24 hours; contact time 24 hrs; active conc. 0.05%
Procedure: (§2) The complex was coated on to Leneta Scrub Resistance test panels, with a dry film thickness of 200 micrometers, with a foam roller allowing a drying time of 18 hours between coats. The panels were equilibrated in the dark for 7 days. Subsamples were cut (each 50 mm×50 mm). The samples were inoculated with a suspension of the test bacteria and then incubated in chambers (1 per species) at 20° C. and 65% relative humidity.
The activity of the immobilized BIT/ZnO complex from Example 8 as a dry-film bactericide after aging against Pseudomonas aeruginosa DSM 939 was determined in the paint described in example 15 according to the JIS Z2801 test. The microbiological test was performed according to the procedure described in Example 16. After equilibration, the specimens were leached in water (24 hours) to simulate use conditions in a severe environment. The paint film was cleaned by water jet.

Escherichia coli [4] = test: JIS Z2801 test after 24 h water leaching (severe environmental conditions), interior flat paint; type: cell-based; conditions: specimens leached in water 24 hours; contact time 24 hrs; active conc. 0.05%
Procedure: as §2
The activity of the immobilized BIT/ZnO complex from Example 8 as a dry-film bactericide after artificial aging against Escherichia coli was determined in ICI UK, Diamond Matt paint, a commercially available water-based interior flat paint (40% acrylic binder) according to the JIS Z2801 test. The paint specimens were prepared as described in example 19. The microbiological test was performed according to the procedure described in Example 16. After equilibration, the specimens were leached in water (24 hours) to simulate use conditions in a severe environment. The paint film was cleaned by water jet.

Escherichia coli [5] = test: JIS Z2801:2000 (E) test, water-based interior flat paint; type: cell-based; conditions: contact time 8 hrs; active conc. 0.05%
Procedure: The activity of the immobilized BIT/ZnO complex from Example 9 as a dry-film bactericide against Escherichia coli was determined in ICI UK, Diamond Matt is paint, a commercially available water-based interior flat paint (40% acrylic binder) according to the JIS Z2801:2000 (E) test (Japanese Industrial Standard Z2801:2000 (E) test, Antimicrobial products—Test for antimicrobial activity and efficacy).
as §2
Swabs were employed for recovery of the bacteria. From the blank sample 1.8×10^5 cfu/cm^2 were recovered. This number was taken as the starting bacterial load on the surface.

[6] = tested on: Pseudomonas aeruginosa DSM 939; test: as above; type: cell-based; conditions: contact time 8 hrs; active conc. 0.05%
Procedure: as §2
as §1, with “in” for “in an”, “JIS Z2801:2000 (E) test. The microbiological test was performed according to the procedure” for “modified Swiss Standard SNV195120, which is”, “in Example 16.” for “below”

[7] = tested on: Pseudomonas aeruginosa DSM 939; test: JIS Z2801 test, interior acrylic wall paint of example 15; type: cell-based; conditions: contact time 8 hrs; active conc. 0.05%
Procedure: as §2
The activity of the immobilized BIT/ZnO complex from Example 8 as a dry-film bactericide against Pseudomonas aeruginosa DSM 939 was determined in the paint described in example 15 according to the JIS Z2801 test. The microbiological test was performed according to the procedure described in to Example 16.

[8] = ambient temperature; cited from earlier work

With CN(C)C(=S)SSC(=S)N(C)C [Thiram, tetramethylthiuram disulfide] the Psa unleached ([1]; active conc. 0.1%) was “G”, the “Psa leached 24 h” value ([1]; active conc. 0.1%) was “G” and the Psa unleached ([1]; active conc. 0.2%) was “G”. The “Psa leached 24 h” value ([1]; active conc. 0.2%) was “G”, the Psa unleached ([2]; active conc. 0.1%) was 0 and the Psa unleached ([2]; active conc. 0.2%) was 0.

With Zinc Pyrithione [ZPT] the “Kill rate % related to blank paint” value [3] was 85.5%, the “Log (Cfu/cm^2)” value [3] was 3.04 Log (Cfu/cm^2) and the “Kill rate % related to blank paint” value (Escherichia coli [4]) was 20%. The “Log (Cfu/cm^2)” value (Escherichia coli [4]) was 3.04 Log (Cfu/cm^2), the “Kill rate % related to blank paint” value (Escherichia coli [5]) was 96.4% and the “Log (Cfu/cm^2)” value (Escherichia coli [5]) was 3.76 Log (Cfu/cm^2). For the same compound, the “Kill rate % related to blank paint” value [6] was 69.40%, the “Log (Cfu/cm^2)” value [6] was 4.18 Log (Cfu/cm^2) and the “Kill rate % related to blank paint” value [7] was 39.5%. For the same compound, the “Log (Cfu/cm^2)” value [7] was 4.66 Log (Cfu/cm^2).

For O=c1[nH]sc2ccccc12 [BIT, 1,2-benzisothiazolin-3-one], the “solubility of BIT in methanol” value [8] is given as “greater than 5%”.

Source: US8350049B2, “Immobilized 1,2-benzisothiazolin-3-one” (priority 2006, dated 2013)
